Experimental data from patent publication US20130245064A1, “NOVEL NEUROTRYPSIN INHIBITORS” (priority 2010, published 2013).
pIC50: −log10 of the molar value.

Columns and labels:
[1] = target: T1, human neurotrypsin (Homo sapiens, UniProt P56730); experiment: Determination of IC50 for human neurotrypsin; type: biochemical; conditions: table of all 14 examples; read-out: Neurotrypsin IC50
T1 sequence (P56730 21-875): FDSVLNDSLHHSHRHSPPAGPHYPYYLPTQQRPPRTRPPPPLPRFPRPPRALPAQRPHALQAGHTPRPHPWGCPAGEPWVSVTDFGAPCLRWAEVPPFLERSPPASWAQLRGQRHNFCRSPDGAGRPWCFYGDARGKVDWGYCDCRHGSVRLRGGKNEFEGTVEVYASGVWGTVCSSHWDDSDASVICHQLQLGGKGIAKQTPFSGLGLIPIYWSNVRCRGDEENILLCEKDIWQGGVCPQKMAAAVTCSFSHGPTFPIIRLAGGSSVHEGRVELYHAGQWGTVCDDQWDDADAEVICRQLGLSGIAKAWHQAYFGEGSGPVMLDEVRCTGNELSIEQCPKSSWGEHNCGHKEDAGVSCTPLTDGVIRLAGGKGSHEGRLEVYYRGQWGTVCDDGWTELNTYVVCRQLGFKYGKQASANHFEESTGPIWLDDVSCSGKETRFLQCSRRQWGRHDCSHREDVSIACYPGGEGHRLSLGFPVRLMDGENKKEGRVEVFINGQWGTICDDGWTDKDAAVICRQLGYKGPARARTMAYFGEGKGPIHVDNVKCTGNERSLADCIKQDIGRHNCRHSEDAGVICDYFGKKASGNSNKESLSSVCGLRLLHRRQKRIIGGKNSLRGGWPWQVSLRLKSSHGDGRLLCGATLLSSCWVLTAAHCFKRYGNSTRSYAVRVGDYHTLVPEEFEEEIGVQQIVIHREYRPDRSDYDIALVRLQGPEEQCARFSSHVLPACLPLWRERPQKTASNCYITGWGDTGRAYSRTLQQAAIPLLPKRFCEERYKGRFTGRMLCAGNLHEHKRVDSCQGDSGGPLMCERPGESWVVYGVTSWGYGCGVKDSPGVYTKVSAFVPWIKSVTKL
Method: Determination of IC50 for Human Neurotrypsin
Assessment of the potency of compounds of examples 1-14 in inhibiting the enzymatic activity of human neurotrypsin was performed according to the method described in patent application […]

Row | Compound | pIC50 [1] | melting point
1 | 1-(2-Hydroxy-4-(5,6-dichloro-1H-benzo[d]imidazol-2-yl)-benzoyl)-4-benzylpiperidine [Example 10] | 4.74 | 
2 | 1-(2-Hydroxy-4-(5,6-dichloro-1H-benzo[d]imidazol-2-yl)-benzoyl)-4-phenoxypiperidine [Example 12] | 5.82 | 
3 | O=C(Nc1ccc(C(=O)Nc2ccc(Cl)cc2)c(O)c1)c1ccc(-c2ccc(F)cc2)cc1 [Example 3] | 5.12 | > 220 °C
4 | O=C(Nc1ccc(Cl)cc1)c1ccc(NC(=O)c2sc3ccccc3c2Cl)cc1O [Example 4, N-(4-Chlorophenyl)-4-[(3-chlorobenzo[b]-thiophene-2-carbonyl)amino]-2-hydroxybenzamide] | 4.26 | > 220 °C
5 | O=C(Nc1ccc(C(=O)Nc2ccc(Cl)cc2)c(O)c1)c1ccc(Oc2ccc(Cl)c(Cl)c2)cc1 [Example 5] | 4.86 | > 220 °C
6 | O=C(Nc1ccc(C(=O)Nc2ccc(Cl)cc2)c(O)c1)c1ccc2cc(Cl)c(Cl)cc2n1 [Example 7, N-(4-Chlorophenyl)-4-(6,7-dichloroquinoline-2-carbonyl)amino-2-hydroxybenzamide] | 4.57 | > 220 °C
7 | O=C(Nc1ccc(C(=O)Nc2ccc(Cl)cc2F)c(O)c1)c1ccc(-c2nc3cc(Cl)c(Cl)cc3[nH]2)cc1 [Example 9, N-(2-Fluoro-4-chloro-phenyl)-4-(4-(5,6-di-chloro-1H-benzo[d]imidazol-2-yl)-benzamido)-2-hydroxybenzamide] | 5.72 | > 220 °C
8 | CC(C)CN(CC(C)C)C(=O)c1ccc(NC(=O)c2ccc(-c3nc4cc(Cl)c(Cl)cc4[nH]3)cc2)cc1O [Example 13, N,N-Diisobutyl-2-hydroxy-4-((5,6-dichloro-1H-benzo[d]imidazol-2-yl)-benzamido)benzamide] | 4.26 | 

More lines, in order of rising pIC50 [1], values ahead:

Row | pIC50 [1] | melting point | Compound
9 | 4.48 | > 220 °C | O=C(Nc1ccccc1F)c1ccc(NC(=O)c2[nH]c3ccc(Cl)cc3c2-c2ccccc2)cc1O [Example 2, N-(2-Fluorophenyl)-4-(5-chloro-3-phenyl-indole-2-carbonyl)amino-2-hydroxybenzamide]
10 | 4.97 | > 220 °C | O=C(Nc1ccc(Cl)cc1)c1ccc(NC(=O)c2[nH]c3ccc(Cl)cc3c2-c2ccccc2)cc1O [Example 8, N-(4-Chlorophenyl)-4-(5-chloro-3-phenylindole-2-carbonyl)amino-2-hydroxybenzamide]
11 | 5.47 | > 220 °C | O=C(Nc1ccc(C(=O)Nc2ccc(Cl)cc2)c(O)c1)c1ccc(-c2ccc(F)cc2)s1 [Example 6]
12 | 5.77 | > 220 °C | CCCCc1ccc(NC(=O)c2ccc(NC(=O)c3ccc(-c4nc5cc(Cl)c(Cl)cc5[nH]4)cc3)cc2O)cc1 [Example 14, N-(4-Butylphenyl)-4-(4-(5,6-dichloro-1H-benzo[d]imidazol-2-yl)-benzamido)-2-hydroxybenzamide]
13 | 5.96 | > 220 °C | O=C(Nc1ccc(C(=O)Nc2ccc(F)cc2F)c(O)c1)c1ccc(-c2nc3cc(Cl)c(Cl)cc3[nH]2)cc1 [Example 11, N-(2,4-Difluorophenyl)-4-(4-(5,6-dichloro-1H-benzo[d]imidazol-2-yl)-benzamido)-2-hydroxybenzamide]
